{"source": "paper PMC9963876", "about": "“Multiple Effects of Echinochrome A on Selected Ion Channels Implicated in Skin Physiology” (Marine Drugs, 2023)", "key": {"[1]": {"target": "T1, TRPV3 (Homo sapiens, UniProt Q8NET8)", "T1 sequence (Q8NET8 1-790)": "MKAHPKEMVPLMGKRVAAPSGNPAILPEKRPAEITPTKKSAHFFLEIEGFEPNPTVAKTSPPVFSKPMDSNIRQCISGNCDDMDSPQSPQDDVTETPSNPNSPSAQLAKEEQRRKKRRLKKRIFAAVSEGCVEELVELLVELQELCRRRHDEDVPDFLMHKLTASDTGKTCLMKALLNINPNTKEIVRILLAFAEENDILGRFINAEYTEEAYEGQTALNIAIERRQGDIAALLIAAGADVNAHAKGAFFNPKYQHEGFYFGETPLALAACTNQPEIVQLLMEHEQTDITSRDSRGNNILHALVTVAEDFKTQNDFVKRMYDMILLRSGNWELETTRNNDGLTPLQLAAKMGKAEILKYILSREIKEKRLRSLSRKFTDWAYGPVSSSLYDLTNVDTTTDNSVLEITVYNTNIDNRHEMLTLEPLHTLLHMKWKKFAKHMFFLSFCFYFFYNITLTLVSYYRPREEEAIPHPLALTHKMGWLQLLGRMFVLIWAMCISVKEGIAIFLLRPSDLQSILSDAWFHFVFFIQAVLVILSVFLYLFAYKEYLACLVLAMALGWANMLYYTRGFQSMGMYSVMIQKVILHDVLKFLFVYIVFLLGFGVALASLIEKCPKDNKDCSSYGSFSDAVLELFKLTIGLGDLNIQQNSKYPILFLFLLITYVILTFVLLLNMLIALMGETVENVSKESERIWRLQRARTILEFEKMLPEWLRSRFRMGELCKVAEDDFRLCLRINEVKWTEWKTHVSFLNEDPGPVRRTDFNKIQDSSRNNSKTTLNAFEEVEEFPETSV", "test": "whole-cell patch clamp, TRPV3-overexpressing HEK […], 2-APB-activated current", "type": "cell-based"}, "[2]": {"target": "T2, Orai1 (Homo sapiens, UniProt Q96D31)", "T2 construct": "with STIM1", "T2 sequence (Q96D31 whole entry)": "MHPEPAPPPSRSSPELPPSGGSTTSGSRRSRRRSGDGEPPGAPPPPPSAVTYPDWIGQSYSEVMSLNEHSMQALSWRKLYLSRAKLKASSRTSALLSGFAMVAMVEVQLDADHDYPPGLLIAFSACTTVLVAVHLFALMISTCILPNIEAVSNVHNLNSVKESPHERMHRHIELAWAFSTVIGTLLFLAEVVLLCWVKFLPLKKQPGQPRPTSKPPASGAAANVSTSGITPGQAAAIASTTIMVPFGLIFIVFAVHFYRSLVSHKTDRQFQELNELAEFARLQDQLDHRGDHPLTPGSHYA", "T2 sequence (Q13586 23-685 partner)": "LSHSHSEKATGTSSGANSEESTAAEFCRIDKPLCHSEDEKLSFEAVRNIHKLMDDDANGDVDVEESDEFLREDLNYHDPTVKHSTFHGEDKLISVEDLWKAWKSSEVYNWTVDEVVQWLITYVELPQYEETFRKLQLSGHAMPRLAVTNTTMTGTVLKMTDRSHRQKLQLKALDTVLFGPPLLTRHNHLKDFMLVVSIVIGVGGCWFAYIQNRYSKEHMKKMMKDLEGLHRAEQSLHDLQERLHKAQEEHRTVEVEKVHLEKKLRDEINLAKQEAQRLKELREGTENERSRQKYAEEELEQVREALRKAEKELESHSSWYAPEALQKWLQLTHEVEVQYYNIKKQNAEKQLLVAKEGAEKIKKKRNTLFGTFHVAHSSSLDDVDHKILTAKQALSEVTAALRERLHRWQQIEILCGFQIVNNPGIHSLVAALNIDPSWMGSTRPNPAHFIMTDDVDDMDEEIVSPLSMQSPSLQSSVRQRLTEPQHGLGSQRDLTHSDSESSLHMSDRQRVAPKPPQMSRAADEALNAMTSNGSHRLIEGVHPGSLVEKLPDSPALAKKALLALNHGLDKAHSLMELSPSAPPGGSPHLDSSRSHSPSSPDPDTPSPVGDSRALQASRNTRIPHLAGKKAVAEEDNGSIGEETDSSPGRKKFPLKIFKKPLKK", "test": "whole-cell patch clamp, Orai1/STIM1 co-expressing HEK […]", "type": "cell-based"}}, "data": [{"smiles": "CCc1c(O)c(O)c2c(c1O)C(=O)C(O)=C(O)C2=O", "note": "[Ech A, 6-ethyl-2,3,5,7,8-pentahydroxy-1,4-naphthoquinone]", "values": [{"measurement": "IC50", "setting": "[1]", "value": "2110 ± 1050", "unit": "nM"}, {"measurement": "IC50", "setting": "[2]", "value": "2410 ± 1550", "unit": "nM"}]}]}
